From patent publication US8741897B2, “Glucocorticoid mimetics, methods of making them, pharmaceutical compositions and uses thereof” (Boehringer Ingelheim Pharmaceuticals Inc., priority 2003, dated 2014)

Key:
[1] = tested on: glucocorticoid receptor function; test: one or more of the above assays (GR binding and glucocorticoid receptor cell assays: aromatase, IL-6, TAT, MMTV-Luc, IL-8, ICAM-Luc); type: cell-based; conditions: assay not specified per compound
[2] = tested on: Human osteosarcoma MG-63 cells; test: Inhibition of osteocalcin production from osteoblast cell line MG-63; type: cell-based; conditions: Vitamin D 10 nM, 48 hours
Procedure: 7. Inhibition of Osteocalcin Production from Osteoblast Cell Line MG-63
The next day, wells are replaced with fresh media. Cells are treated with Vitamin D (Sigma, Cat. No. D1530) to a final concentration of 10 nM, and with the test compounds in concentrations of 10^−6 M to 10^−9 M, in a total volume of 200 μL per well. Samples are done in duplicates. […] Positive control wells receive Vitamin D only, without compounds, and represent maximum (100%) amount of osteocalcin production. Plates are incubated at 37° C. incubator for 48 hours and supernatants are harvested at the end of incubation. Amounts of osteocalcin in the supernatants are determined by the Glype osteocalcin ELISA kit (Zymed, Cat. No. 99-0054) according to manufacture's protocol. Inhibition of osteocalcin by test compounds is expressed in percentage relative to positive controls. IC50 values of the test compounds are derived by non-lineal curve fitting.

[3] = biological target: T1, human glucocorticoid receptor (GR) complex (Homo sapiens, UniProt P04150); test: Glucocorticoid receptor competitive binding assay (fluorescence polarization, TAMRA-labeled dexamethasone probe); conditions: compounds of Formula (IA)
T1 construct: made in house; host or cells: insect expression system (baculovirus lysate)
T1 sequence (P04150 1-777): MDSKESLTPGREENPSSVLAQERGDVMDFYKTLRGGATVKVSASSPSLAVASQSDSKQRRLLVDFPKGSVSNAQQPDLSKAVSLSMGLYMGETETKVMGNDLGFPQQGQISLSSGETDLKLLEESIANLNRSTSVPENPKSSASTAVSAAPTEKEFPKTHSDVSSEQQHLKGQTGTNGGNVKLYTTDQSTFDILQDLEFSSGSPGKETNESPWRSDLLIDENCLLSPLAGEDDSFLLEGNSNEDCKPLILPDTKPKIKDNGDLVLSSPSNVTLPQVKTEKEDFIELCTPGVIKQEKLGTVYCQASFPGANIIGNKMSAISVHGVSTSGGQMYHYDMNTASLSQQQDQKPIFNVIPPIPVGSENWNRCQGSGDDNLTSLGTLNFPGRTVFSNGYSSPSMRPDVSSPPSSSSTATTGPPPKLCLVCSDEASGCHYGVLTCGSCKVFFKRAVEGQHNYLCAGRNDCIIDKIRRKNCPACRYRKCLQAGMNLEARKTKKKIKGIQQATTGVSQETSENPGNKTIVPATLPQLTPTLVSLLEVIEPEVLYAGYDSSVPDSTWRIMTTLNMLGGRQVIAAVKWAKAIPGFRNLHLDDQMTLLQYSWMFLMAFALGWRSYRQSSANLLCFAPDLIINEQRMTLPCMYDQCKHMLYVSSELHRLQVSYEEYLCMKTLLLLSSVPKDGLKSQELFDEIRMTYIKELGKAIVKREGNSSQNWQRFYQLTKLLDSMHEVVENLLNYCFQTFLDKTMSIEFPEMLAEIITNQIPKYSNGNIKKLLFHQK
Outline: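 Fluorescence-polarization competition against 15 nM TAMRA-dexamethasone (stock added to the mix) for human GR complex from baculovirus lysate diluted 1:170. Buffer: 10 mM TES, 50 mM KCl, 20 mM Na2MoO4, 1.5 mM EDTA, 0.04% CHAPS, 10% glycerol, 1 mM DTT, pH 7.4. IC50 from 4-parameter logistic fit.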

activity in the GR binding assay [3] | SMILES | activity as agonists of the glucocorticoid receptor function in one or more of the above assays [1] | inhibit the vitamin D stimulated production of osteocalcin [2]
– | COc1ccc(F)cc1C(C)(C)CC(O)(Cc1cc2cc(-c3ccccc3)ncc2[nH]1)C(F)(F)F (stereo not shown) [1,1,1-Trifluoro-4-(5-fluoro-2-methoxyphenyl)-4-methyl-2-(5-phenyl-1H-pyrrolo[2,3-c]pyridin-2-ylmethyl)pentan-2-ol] | potent agonists | inhibit
potent activity | CC(C)(CC(O)(Cc1cc2cc(C(=O)NCC#N)ccc2[nH]1)C(F)(F)F)c1cc(Br)cc2c1OCC2 (stereo not shown) [2-[4-(5-Bromo-2,3-dihydrobenzofuran-7-yl)-2-hydroxy-4-methyl-2-trifluoromethylpentyl]-1H-indole-5-carboxylic acid cyanomethylamide] | potent agonists | inhibit
– | CC(C)(CC(O)(Cc1cc2cc(-c3ccccc3)ncc2[nH]1)C(F)(F)F)c1cc(Cl)cc2c1OCC2 (stereo not shown) [4-(5-Chloro-2,3-dihydrobenzofuran-7-yl)-1,1,1-trifluoro-4-methyl-2-(5-phenyl-1H-pyrrolo[2,3-c]pyridin-2-ylmethyl)pentan-2-ol] | potent agonists | inhibit
potent activity | CC(C)(CC(O)(Cc1cc2cc(C(N)=O)ccc2[nH]1)C(F)(F)F)c1cc(Br)cc2c1OCC2 (stereo not shown) [2-[4-(5-Bromo-2,3-dihydrobenzofuran-7-yl)-2-hydroxy-4-methyl-2-trifluoromethylpentyl]-1H-indole-5-carboxylic acid amide] | potent agonists | inhibit
– | CC(C)(CC(O)(Cc1cc2cnccc2[nH]1)C(F)(F)F)c1cccc(Cl)c1 (stereo not shown) [4-(3-Chlorophenyl)-1,1,1-trifluoro-4-methyl-2-(1H-pyrrolo[3,2-c]pyridin-2-ylmethyl)pentan-2-ol] | potent agonists | inhibit
potent activity | CC(C)(CC(O)(Cc1cc2cc(C(=O)N3CCCC3)ccc2[nH]1)C(F)(F)F)c1cc(Br)cc2c1OCC2 (stereo not shown) [{2-[4-(5-Bromo-2,3-dihydrobenzofuran-7-yl)-2-hydroxy-4-methyl-2-trifluoromethylpentyl]-1H-indol-5-yl}pyrrolidin-1-ylmethanone] | potent agonists | inhibit
– | Cc1ccc(F)cc1C(C)(C)CC(O)(Cc1cc2cc(-c3ccccc3)ncc2[nH]1)C(F)(F)F (stereo not shown) [1,1,1-Trifluoro-4-(5-fluoro-2-methylphenyl)-4-methyl-2-(5-phenyl-1H-pyrrolo[2,3-c]pyridin-2-ylmethyl)pentan-2-ol] | potent agonists | inhibit
– | Cc1nccc2[nH]c(CC(O)(CC(C)(C)c3cc(Cl)cc4c3OCC4)C(F)(F)F)cc12 (stereo not shown) [4-(5-Chloro-2,3-dihydrobenzofuran-7-yl)-1,1,1-trifluoro-4-methyl-2-(4-methyl-1H-pyrrolo[3,2-c]pyridin-2-ylmethyl)pentan-2-ol] | potent agonists | inhibit
– | CC(C)(CC(O)(Cc1cc2cc(N3CCOCC3)ncc2[nH]1)C(F)(F)F)c1cccc(Br)c1 (stereo not shown) [4-(3-Bromophenyl)-1,1,1-trifluoro-4-methyl-2-(5-morpholin-4-yl-1H-pyrrolo[2,3-c]pyridin-2-ylmethyl)pentan-2-ol] | potent agonists | inhibit
– | CC(C)(CC(O)(Cc1cc2cc(O)ncc2[nH]1)C(F)(F)F)c1cc(-c2ccccc2)ccc1O (stereo not shown) [2-[2-Hydroxy-4-(4-hydroxybiphenyl-3-yl)-4-methyl-2-trifluoromethylpentyl]-1H-pyrrolo[2,3-c]pyridin-5-ol] | potent agonists | inhibit
potent activity | COc1cc2cc(CC(O)(CC(C)(C)c3cc(Cl)cc4c3OCC4)C(F)(F)F)[nH]c2cn1 (stereo not shown) [4-(5-Chloro-2,3-dihydrobenzofuran-7-yl)-1,1,1-trifluoro-2-(5-methoxy-1H-pyrrolo[2,3-c]pyridin-2-ylmethyl)-4-methylpentan-2-ol] | potent agonists | inhibit
– | CCN(C)c1cc2cc(CC(O)(CC(C)(C)c3cc(F)ccc3C)C(F)(F)F)[nH]c2cn1 (stereo not shown) [2-[5-(Ethylmethylamino)-1H-pyrrolo[2,3-c]pyridin-2-ylmethyl]-1,1,1-trifluoro-4-(5-fluoro-2-methylphenyl)-4-methylpentan-2-ol] | potent agonists | inhibit
potent activity | Cc1cc2[nH]c(CC(O)(CC(C)(C)c3cc(Cl)cc4c3OCC4)C(F)(F)F)cc2c(C)n1 (stereo not shown) [4-(5-Chloro-2,3-dihydrobenzofuran-7-yl)-2-(4,6-dimethyl-1H-pyrrolo[3,2-c]pyridin-2-ylmethyl)-1,1,1-trifluoro-4-methylpentan-2-ol] | potent agonists | inhibit
– | COc1ccc(-c2cccnc2)cc1C(C)(C)CC(O)(Cc1cc2cc(N3CCCCC3)ncc2[nH]1)C(F)(F)F (stereo not shown) [1,1,1-Trifluoro-4-(2-methoxy-5-pyridin-3-ylphenyl)-4-methyl-2-(5-piperidin-1-yl-1H-pyrrolo[2,3-c]pyridin-2-ylmethyl)pentan-2-ol] | potent agonists | inhibit
– | CCN(C)c1cc2cc(CC(O)(CC(C)(C)c3cc(Cl)cc4c3OCC4)C(F)(F)F)[nH]c2cn1 (stereo not shown) [4-(5-Chloro-2,3-dihydrobenzofuran-7-yl)-2-[5-(ethylmethylamino)-1H-pyrrolo[2,3-c]pyridin-2-ylmethyl]-1,1,1-trifluoro-4-methylpentan-2-ol] | potent agonists | inhibit
– | Cc1c(CC(O)(CC(C)(C)c2cc(-c3cncnc3)cc3c2OCC3)C(F)(F)F)[nH]c2cnccc12 (stereo not shown) [1,1,1-Trifluoro-4-methyl-2-(3-methyl-1H-pyrrolo[2,3-c]pyridin-2-ylmethyl)-4-(5-pyrimidin-5-yl-2,3-dihydrobenzofuran-7-yl)pentan-2-ol] | potent agonists | inhibit
– | CN(C)c1cc2cc(CC(O)(CC(C)(C)c3cc(F)ccc3O)C(F)(F)F)[nH]c2cn1 (stereo not shown) [2-[3-(5-Dimethylamino-1H-pyrrolo[2,3-c]pyridin-2-ylmethyl)-4,4,4-trifluoro-3-hydroxy-1,1-dimethylbutyl]-4-fluorophenol] | potent agonists | inhibit
– | CC(C)(CC(O)(Cc1cc2cc(N3CCCCC3)ncc2[nH]1)C(F)(F)F)c1cc(S(C)(=O)=O)cc2c1OCC2 (stereo not shown) [1,1,1-Trifluoro-4-(5-methanesulfonyl-2,3-dihydrobenzofuran-7-yl)-4-methyl-2-(5-piperidin-1-yl-1H-pyrrolo[2,3-c]pyridin-2-ylmethyl)pentan-2-ol] | potent agonists | inhibit
– | COc1ccc(-c2cncnc2)cc1C(C)(C)CC(O)(Cc1cc2cc(N3CCCCC3)ncc2[nH]1)C(F)(F)F (stereo not shown) [1,1,1-Trifluoro-4-(2-methoxy-5-pyrimidin-5-ylphenyl)-4-methyl-2-(5-piperidin-1-yl-1H-pyrrolo[2,3-c]pyridin-2-ylmethyl)pentan-2-ol] | potent agonists | inhibit
